Values quoted from earlier work, collected in patent publication US20020165233A1, “Quinoxaline containing medicaments for post exposure prophylaxis of an HIV infection” (priority 1999, published 2002).

What was measured:
[1] = tested on: HIV-1; conditions: inhibitor given 1 hr before challenge, continued 20-30 weeks post challenge; cited from earlier work
[2] = tested on: SIV; conditions: administration 48 h before, 4 h after and 24 h after virus inoculation for 4 weeks; observed 56 weeks; cited from earlier work
[3] = tested on: RT-SHIV; conditions: RT-SHIV infected rhesus monkeys; cited from earlier work
[4] = tested on: HIV; conditions: cited from earlier work
[5] = tested on: HIV; conditions: prophylaxis with only zidovudine; case-control study; cited from earlier work

CCc1cc(CCc2nc3ccccc3o2)c(=O)[nH]c1C [L-696,229]
outcome of prophylaxis in treated animals [1]: developed delayed infections

C[C@H](Cn1cnc2c(N)ncnc21)OCP(=O)(O)O [PMPA]
protection against SIV infection [2]: full protection | effect of post exposure prophylaxis (PEP) [3]: vaccination effect protecting the animals against wild-type challenge

Cc1cn([C@H]2C[C@H](N=[N+]=[N-])[C@@H](CO)O2)c(=O)[nH]c1=O [zidovudine]
suppression (change in viremia) ([4]; after 7 days of treatment at 1000 mg per day (Loveday et al)): 1 log | mean initial suppression ([4]; conventionally used antiviral agents given alone): ≤ 1 log | protective effect of prophylaxis [5]: 80%
